Here are results for 1 compound from paper PMC2747507 (The Pediatric infectious disease journal, 2009).

Where two headings read alike, the source gives them in different places. Numbered stars: 1 amine (or outer) side, 2 acyl side, 3 side chain; on linkers, the order of the positions; unused ones are H or OH. Bridge positions count the residues as written; N and C are the ends. Square brackets hold non-standard residues; d marks the D form. Peptide text beside a SMILES is read from it. * marks the point of attachment. hTyr(3S-OH,4S-OH,3'-OSO3H) = N[C@H](C(=O)O)[C@H](O)[C@@H](O)c1ccc(O)c(OS(=O)(=O)O)c1; Orn(4R-OH,5R-OH) = O=C([C@H](C[C@@H](O)[C@@H](O)N[*:3])N[*:1])[*:2]; Pro(3S-OH,4S-Me) = C[C@H]1CN[C@H](C(=O)O)[C@H]1O; X1 = CCCCCOc1ccc(-c2cc(-c3ccc(C(=O)*)cc3)no2)cc1; Gln(3R-OH) = NC(=O)C[C@@H](O)[C@H](N)C(=O)O; Hyp = O=C(O)[C@@H]1C[C@@H](O)CN1

Data set [1] is classed as in vivo, human (preterm neonates).
The conditions of data set [2]: cited from earlier work.
For data set [3] the following is noted: cited from earlier work. This is another data set of the same source.
In data set [4] the test system is central nervous system infections. The note with it: neutropenic rabbits; cited from earlier work.
Data set [5] is classed as in vivo, human (preterm neonates). The note with it: 15 mg/kg/day IV.
Where [6] appears, read: 12 neonates, 15 mg/kg/day IV for 5 days, not felt related to micafungin.
Setting [7] is: neonates <1000 grams (n=7), mean (SD), SD.
The mark [8] stands for this setting: neonates ≥1000 grams (n=5), mean (SD), SD.

As to `CCCCCOc1ccc(-c2cc(-c3ccc(C(=O)N[C@H]4C[C@@H](O)[C@@H](O)NC(=O)[C@@H]5[C@@H](O)[C@@H](C)CN5C(=O)[C@H]([C@H](O)CC(N)=O)NC(=O)[C@H]([C@H](O)[C@@H](O)c5ccc(O)c(OS(=O)(=O)O)c5)NC(=O)[C@@H]5C[C@@H](O)CN5C(=O)[C@H]([C@@H](C)O)NC4=O)cc3)no2)cc1` [micafungin] (X1-[Orn(4R-OH,5R-OH)]T[Hyp][hTyr(3S-OH,4S-OH,3'-OSO3H)][Gln(3R-OH)][Pro(3S-OH,4S-Me)]; lactam 1-C), the “reported AE: hypochloremia” value in data set [1] (setting [6]) stood at 33%. The “reported AE: hypokalemia” value in data set [1] (setting [6]) amounted to 25%. The “reported AE: hyponatremia” value in data set [1] (setting [6]) was determined as 42%. Also, the “reported AE: monocytosis” value in data set [1] (setting [6]) was determined as 25%. The “renal toxicity and changes in hematology parameters” value in data set [1] (12 neonates, baseline vs end of therapy) was “No evidence of renal toxicity or significant changes in hematology parameters”. The deaths result in data set [1] (12 neonates, 3 days after completing the course of micafungin) is “One 540 g neonate died on day of life 11 from necrotizing enterocolitis”. Moreover, in data set [1] (median (IQR), prior to 1st dose 4.0 (3.4, 4.4), P 0.03), the “Potassium, after 5th dose” value was determined as 4.6 mmol/L. Also, in data set [2] (18 neonates > 1000 g, single IV dose 0.75, 1.5 or 3.0 mg/kg), the “mean CL” value is 0.65 mL/min/kg. The CL in data set [2] (neonates < 1000g, single dose 0.75 mg/kg, data from 4 patients) is 1.32 mL/min/kg; in data set [3] (adults) it was 0.16 mL/min/kg; in data set [3] (children ages 2–8 years), 0.38 mL/min/kg; in data set [3] (children ages 9–17 years), 0.28 mL/min/kg. The “Vdss in neonates from the previous study” value in data set [2] (single-dose study in neonates) is on record as 0.44 L/kg. The distribution volume (Vdss) in data set [3] (adult studies) is 0.26 L/kg; in data set [5] (setting [7]) it was 1.637(0.657) L/kg; in data set [5] (setting [8]), 1.344(0.141) L/kg; in data set [5] (whole cohort n=12, weight-normalized, mean (SD), SD), 1.515(0.516) L/kg. Further, the “average AUC” value in data set [3] (adults, 150 mg dose) was 166.7 µg·h/mL. The “treatment of central nervous system infections” value in data set [4] is “Successful treatment”. Moreover, the “highest observed AUC0–24” value in data set [5] (preterm neonates, maximum of n=12) is 555.6 µg·h/mL. The Vdβ is 0.636(0.370) L/kg in data set [5] (setting [7]) and 0.581(0.106) L/kg in data set [5] (setting [8]). Further, the “Vdβ, volume of distribution in the elimination phase” value in data set [5] (whole cohort n=12, mean (SD), SD) is listed as 0.613(0.282) L/kg. For the same compound, the Cmax in data set [5] (whole cohort n=12, obtained directly from the data, mean (SD), SD) was 38.4(8.8) ug/mL.

For orientation: Vdss means the apparent volume that relates the amount in the body to the concentration in plasma or blood.
